Source: paper PMC5896373 (Molecular Pharmacology, 2018)
Where a chain is given by its changes, count along the chain named.

What was measured:
P2X7-2Nβ 73–79 deletion = molecular target: T1, P2X7-2Nβ 73–79 deletion (Homo sapiens, UniProt Q99572, DEL73-79/I21V/M24R/N16P/N25R/Q22R/R20V/S23N/T19I/Y26L); assay: Two-electrode voltage clamp of ATP-evoked currents in Xenopus oocytes; type: cell-based
T1 construct: expressed in transfected cells; host or cells: Xenopus laevis oocytes (cRNA injection)
T1 sequence (Q99572 with tags, fused parts or gaps N16P/T19I/R20V/I21V/Q22R/S23N/M24R/N25R/Y26L/DEL73-79): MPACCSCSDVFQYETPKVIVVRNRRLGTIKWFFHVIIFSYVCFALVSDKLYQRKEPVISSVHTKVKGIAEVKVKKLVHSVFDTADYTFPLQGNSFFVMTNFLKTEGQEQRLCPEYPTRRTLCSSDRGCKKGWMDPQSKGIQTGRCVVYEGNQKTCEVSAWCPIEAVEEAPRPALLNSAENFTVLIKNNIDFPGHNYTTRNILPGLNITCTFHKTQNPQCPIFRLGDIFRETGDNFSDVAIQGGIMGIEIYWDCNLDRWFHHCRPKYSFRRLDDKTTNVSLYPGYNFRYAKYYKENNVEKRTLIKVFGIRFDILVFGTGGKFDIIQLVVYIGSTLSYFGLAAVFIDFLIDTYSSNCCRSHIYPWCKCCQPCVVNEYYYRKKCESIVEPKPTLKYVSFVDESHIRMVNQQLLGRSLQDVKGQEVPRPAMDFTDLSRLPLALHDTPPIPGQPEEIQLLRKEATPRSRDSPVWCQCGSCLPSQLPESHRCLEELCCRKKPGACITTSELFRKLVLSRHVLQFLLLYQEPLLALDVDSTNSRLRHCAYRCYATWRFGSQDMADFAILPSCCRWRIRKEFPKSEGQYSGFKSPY
Experimental: (§1) Additional point mutants were made using the QuikChange mutagenesis kit (Stratagene California, La Jolla, CA). The production of the correct mutations and absence of coding errors was determined by DNA sequencing (Automated ABI Sequencing Service, University of Leicester, UK). cRNA was generated for the mutants and 50 nl (50 ng) was injected into manually defoliculated stage V Xenopus laevis oocytes using an Inject+Matic microinjector (J.A. Gabay, Inject+Matic, Geneva, Switzerland). Injected oocytes were stored at 16°C in ND96 buffer [in millimolar concentrations, NaCl 96, KCl 2, CaCl2 1.8, MgCl2 1, sodium pyruvate 5, and HEPES 5 (pH 7.6) supplemented with 50 μg/ml gentamycin and 50 μg/ml tetracycline]. Three to seven days postinjection two-electrode voltage clamp recordings were made from oocytes bathed in divalent-free ND96 buffer (in millimolar concentrations, NaCl 96, KCl 2, sodium pyruvate 5, HEPES 5, and 0.1 flufenamic acid, pH 7.6). Oocytes were voltage clamped at a holding potential of −60 mV with a GeneClamp500B amplifier (Molecular Devices).
(§2) Inhibition by the antagonists was expressed as the percentage of the peak current amplitude of an EC90 concentration of ATP recorded before the application of antagonist (ATP gave reproducible responses to ATP in the absence of antagonist). Inhibition curves were fitted with the Hill equation (variable slope) using GraphPad Prism 6 (GraphPad Software, San Diego, CA). […] Individual concentration-response curves were generated for individual experiments, and statistical analysis was carried out on the data generated. […] Data are shown as mean ± S.E.M. In all cases n ≥ 3 for all data points.

[1] = molecular target: T2, chimeric P2X7/1 receptor 170–177 (Homo sapiens, UniProt Q99572, A172V/A176I/E174D/E175D/I170V/I21V/M24R/N16P/N25R/Q22R/R20V/S23N/T19I/V173D/Y26L); assay: as above; type: cell-based
T2 construct: expressed in transfected cells; host or cells: Xenopus laevis oocytes (cRNA injection)
T2 sequence (Q99572 1-595 N16P/T19I/R20V/I21V/Q22R/S23N/M24R/N25R/Y26L/I170V/A172V/V173D/E174D/E175D/A176I): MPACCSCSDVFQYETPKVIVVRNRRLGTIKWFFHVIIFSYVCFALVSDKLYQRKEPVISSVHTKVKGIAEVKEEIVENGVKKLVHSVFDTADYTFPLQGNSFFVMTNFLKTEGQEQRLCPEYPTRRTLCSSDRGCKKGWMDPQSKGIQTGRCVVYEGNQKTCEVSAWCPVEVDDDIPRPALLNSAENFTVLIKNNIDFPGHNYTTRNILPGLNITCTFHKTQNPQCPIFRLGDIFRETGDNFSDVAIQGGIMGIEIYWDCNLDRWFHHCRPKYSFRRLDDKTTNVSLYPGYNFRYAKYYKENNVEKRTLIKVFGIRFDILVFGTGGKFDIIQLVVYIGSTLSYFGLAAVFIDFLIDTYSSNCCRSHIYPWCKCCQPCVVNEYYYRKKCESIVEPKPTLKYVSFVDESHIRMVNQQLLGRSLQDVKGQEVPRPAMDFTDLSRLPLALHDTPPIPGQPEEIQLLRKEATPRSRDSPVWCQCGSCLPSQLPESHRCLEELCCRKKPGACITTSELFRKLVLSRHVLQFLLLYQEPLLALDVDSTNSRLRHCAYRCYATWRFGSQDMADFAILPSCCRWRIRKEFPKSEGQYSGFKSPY
Experimental: as §1, §2

P2X7R point mutant K110Y = molecular target: T3, P2X7R point mutant K110Y (Homo sapiens, UniProt Q99572, I21V/K110Y/M24R/N16P/N25R/Q22R/R20V/S23N/T19I/Y26L); assay: as above; type: cell-based
T3 construct: expressed in transfected cells; host or cells: Xenopus laevis oocytes (cRNA injection)
T3 sequence (Q99572 1-595 N16P/T19I/R20V/I21V/Q22R/S23N/M24R/N25R/Y26L/K110Y): T2 sequence (Q99572 1-595 N16P/T19I/R20V/I21V/Q22R/S23N/M24R/N25R/Y26L/I170V/A172V/V173D/E174D/E175D/A176I) with K110Y, V170I, V172A, D173V, D174E, D175E, I176A
Experimental: as §1, §2

P2X7R point mutant V304C = molecular target: T4, P2X7R point mutant V304C (Homo sapiens, UniProt Q99572, I21V/M24R/N16P/N25R/Q22R/R20V/S23N/T19I/V304C/Y26L); assay: as above; type: cell-based; conditions: EC90 ATP, mean ± S.E.M.
T4 construct: expressed in transfected cells; host or cells: Xenopus laevis oocytes (cRNA injection)
T4 sequence (Q99572 whole entry N16P/T19I/R20V/I21V/Q22R/S23N/M24R/N25R/Y26L/V304C): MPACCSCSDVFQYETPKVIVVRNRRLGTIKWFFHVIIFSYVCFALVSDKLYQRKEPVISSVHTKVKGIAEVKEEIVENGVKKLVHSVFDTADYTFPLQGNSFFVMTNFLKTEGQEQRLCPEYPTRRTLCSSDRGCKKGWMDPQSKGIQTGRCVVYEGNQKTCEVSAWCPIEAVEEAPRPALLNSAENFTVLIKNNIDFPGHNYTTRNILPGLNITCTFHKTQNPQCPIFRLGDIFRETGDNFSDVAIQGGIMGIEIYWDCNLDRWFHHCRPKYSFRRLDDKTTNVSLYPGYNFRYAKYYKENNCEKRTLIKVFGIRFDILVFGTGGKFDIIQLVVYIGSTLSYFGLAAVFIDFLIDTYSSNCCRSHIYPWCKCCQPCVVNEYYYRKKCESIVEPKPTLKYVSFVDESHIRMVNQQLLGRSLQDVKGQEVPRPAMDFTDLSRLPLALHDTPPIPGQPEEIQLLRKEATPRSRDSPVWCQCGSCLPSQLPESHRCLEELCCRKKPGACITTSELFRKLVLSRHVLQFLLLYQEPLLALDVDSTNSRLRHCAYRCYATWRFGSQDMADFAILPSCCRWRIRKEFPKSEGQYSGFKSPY
Experimental: (§3) Injected oocytes were stored at 16°C in ND96 buffer [in millimolar concentrations, NaCl 96, KCl 2, CaCl2 1.8, MgCl2 1, sodium pyruvate 5, and HEPES 5 (pH 7.6) supplemented with 50 μg/ml gentamycin and 50 μg/ml tetracycline]. Three to seven days postinjection two-electrode voltage clamp recordings were made from oocytes bathed in divalent-free ND96 buffer (in millimolar concentrations, NaCl 96, KCl 2, sodium pyruvate 5, HEPES 5, and 0.1 flufenamic acid, pH 7.6). Oocytes were voltage clamped at a holding potential of −60 mV with a GeneClamp500B amplifier (Molecular Devices).
as §2

P2X7R point mutant K306C = molecular target: T5, P2X7R point mutant K306C (Homo sapiens, UniProt Q99572, I21V/K306C/M24R/N16P/N25R/Q22R/R20V/S23N/T19I/Y26L); assay: as above; type: cell-based; conditions: EC90 ATP, mean ± S.E.M.
T5 construct: expressed in transfected cells; host or cells: Xenopus laevis oocytes (cRNA injection)
T5 sequence (Q99572 whole entry N16P/T19I/R20V/I21V/Q22R/S23N/M24R/N25R/Y26L/K306C): as the sequence (Q99572 whole entry N16P/T19I/R20V/I21V/Q22R/S23N/M24R/N25R/Y26L/V304C) above, with C304V, K306C counted along it
Experimental: as §3, §2

P2X7R point mutant I310A = molecular target: T6, P2X7R point mutant I310A (Homo sapiens, UniProt Q99572, I21V/I310A/M24R/N16P/N25R/Q22R/R20V/S23N/T19I/Y26L); assay: as above; type: cell-based; conditions: EC90 ATP, mean ± S.E.M.
T6 construct: expressed in transfected cells; host or cells: Xenopus laevis oocytes (cRNA injection)
T6 sequence (Q99572 whole entry N16P/T19I/R20V/I21V/Q22R/S23N/M24R/N25R/Y26L/I310A): as the sequence (Q99572 whole entry N16P/T19I/R20V/I21V/Q22R/S23N/M24R/N25R/Y26L/V304C) above, with C304V, I310A counted along it
Experimental: as §3, §2

P2X7R point mutant Y295A = molecular target: T7, P2X7R point mutant Y295A (Homo sapiens, UniProt Q99572, I21V/M24R/N16P/N25R/Q22R/R20V/S23N/T19I/Y26L/Y295A); assay: as above; type: cell-based; conditions: EC90 ATP, mean ± S.E.M.
T7 construct: expressed in transfected cells; host or cells: Xenopus laevis oocytes (cRNA injection)
T7 sequence (Q99572 whole entry N16P/T19I/R20V/I21V/Q22R/S23N/M24R/N25R/Y26L/Y295A): as the sequence (Q99572 whole entry N16P/T19I/R20V/I21V/Q22R/S23N/M24R/N25R/Y26L/V304C) above, with Y295A, C304V counted along it
Experimental: as §1
Inhibition by the antagonists was expressed as the percentage of the peak current amplitude of an EC90 concentration of ATP recorded before the application of antagonist (ATP gave reproducible responses to ATP in the absence of antagonist). […]

P2X7R point mutant F95A = molecular target: T8, P2X7R point mutant F95A (Homo sapiens, UniProt Q99572, F95A/I21V/M24R/N16P/N25R/Q22R/R20V/S23N/T19I/Y26L); assay: cell-based
T8 construct: expressed in transfected cells; host or cells: Xenopus laevis oocytes (cRNA injection)
T8 sequence (Q99572 whole entry N16P/T19I/R20V/I21V/Q22R/S23N/M24R/N25R/Y26L/F95A): as the sequence (Q99572 whole entry N16P/T19I/R20V/I21V/Q22R/S23N/M24R/N25R/Y26L/V304C) above, with F95A, C304V counted along it
Experimental: as §3, §2

P2X7R point mutant F108C = molecular target: T9, P2X7R point mutant F108C (Homo sapiens, UniProt Q99572, F108C/I21V/M24R/N16P/N25R/Q22R/R20V/S23N/T19I/Y26L); assay: cell-based
T9 construct: expressed in transfected cells; host or cells: Xenopus laevis oocytes (cRNA injection)
T9 sequence (Q99572 whole entry N16P/T19I/R20V/I21V/Q22R/S23N/M24R/N25R/Y26L/F108C): as the sequence (Q99572 whole entry N16P/T19I/R20V/I21V/Q22R/S23N/M24R/N25R/Y26L/V304C) above, with F108C, C304V counted along it
Experimental: as §3, §2

Row | Compound | IC50 (P2X7-2Nβ 73–79 deletion) [nM] | effect on antagonist sensitivity relative to P2X7-2Nβ (P2X7-2Nβ 73–79 deletion; 73–79 deletion) | IC50 [1] [nM] | effect on antagonist potency relative to P2X7-2Nβ ([1]; chimera 170–177) | IC50 (P2X7R point mutant K110Y) [nM] | effect on antagonist sensitivity relative to P2X7-2Nβ (P2X7R point mutant K110Y; K110Y) | IC50 (P2X7R point mutant V304C) [nM] | IC50 (P2X7R point mutant K306C) [nM] | IC50 (P2X7R point mutant I310A) [nM] | IC50 (P2X7R point mutant Y295A) [nM] | IC50 (P2X7R point mutant F95A) [nM] | IC50 (P2X7R point mutant F108C) [nM]
1 | COc1ccc(CC(=O)NC(N=C(NC#N)Nc2cccc3ncccc23)C(C)(C)C)cc1OC (stereo not drawn) [A740003, N-[1-[[(cyanoamino)(5-quinolinylamino)methylene]amino]-2,2-dimethylpropyl]-3,4-dimethoxybenzeneacetamide] | 79.4 | unaffected | 63.1 | no effect | 100 | no effect | 100 | 316 | 126 | 158 | 1000 | 1000
2 | Cl.Clc1cccc(-c2nnnn2Cc2cccnc2)c1Cl.O [A438079, 3-(5-(2,3-dichlorophenyl)-1H-tetrazol-1-yl)methyl pyridine hydrochloride hydrate] | 200 |  | 631 |  | 794 |  | 63.1 | 1580 | 6310 | 2000 | > 100000 | 10000
